# Reference: PMC12593347, “Profiling Class-Wide Bioactivities of Flavonoids While Minimizing Compound-Specific Effects Using an Equimolar Mixture Strategy” (Journal of Agricultural and Food Chemistry, 2025)
# Target: T1, amyloid-β1–42 (Aβ1–42) (Homo sapiens, UniProt P05067)
# T1 construct: gene APP; Aβ1–42 monomers, biotinylated, immobilized on streptavidin biosensor
# Assay: biolayer interferometry (Octet R8), steady-state […] fit
# Assay type: binding
# T1 sequence (P05067 672-713): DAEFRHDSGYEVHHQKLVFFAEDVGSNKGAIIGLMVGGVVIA
structure (smiles),measurement,value
O=C(O[C@@H]1Cc2c(O)cc(O)cc2O[C@@H]1c1cc(O)c(O)c(O)c1)c1cc(O)c(O)c(O)c1 [EGCG],Kd,93 µM
